In PubChem BioAssay (NCI):
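In this assay, cells in 96-well plates receive the compound at five concentrations for 48 hours. Endpoints are linearly interpolated between the surrounding concentrations. At the TGI there is no net growth.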

Legend:
Assay in all cases: DTP human tumour cell line panel, 48 h
[1] = system: NCI-H522 lung
[2] = system: UO-31 renal
[3] = system: SNB-19 CNS
[4] = system: CCRF-CEM leukemia
[5] = system: A549 NSCLC
[6] = system: HCC-2998 colon
[7] = system: U251 CNS
[8] = system: SN12C renal
[9] = system: NCI-H226 lung
[10] = system: BT-549 breast
[11] = system: IGROV1 ovarian
[12] = system: SF-539 CNS
[13] = system: UACC-257 melanoma
[14] = system: PC-3 prostate
[15] = system: SF-295 CNS
[16] = system: HCT-116 colon
[17] = system: OVCAR-4 ovarian
[18] = system: SW-620 colon
[19] = system: UACC-62 melanoma
[20] = system: OVCAR-8 ovarian
[21] = system: MALME-3M melanoma
[22] = system: RPMI-8226 leukemia
[23] = system: MDA-MB-231 breast
[24] = system: A498 renal
[25] = system: OVCAR-5 ovarian
[26] = system: NCI/ADR-RES ovarian
[27] = system: SK-MEL-5 melanoma
[28] = system: 786-0 renal
[29] = system: COLO 205 colon
[30] = system: SK-MEL-2 melanoma
[31] = system: DU-145 prostate
[32] = system: SK-MEL-28 melanoma
[33] = system: HL-60(TB) leukemia
[34] = system: K-562 leukemia
[35] = system: MDA-N
[36] = system: SK-OV-3 ovarian
[37] = system: MOLT-4 leukemia
[38] = system: SR leukemia
[39] = system: ACHN renal
[40] = system: MDA-MB-435
[41] = system: HOP-92 NSCLC
[42] = system: EKVX NSCLC
[43] = system: HS 578T breast
[44] = system: HCT-15 colon
[45] = system: TK-10 renal
[46] = system: OVCAR-3 ovarian
[47] = system: NCI-H460 lung
[48] = system: MCF7 breast
[49] = system: LOX IMVI melanoma
[50] = system: KM12 colon
[51] = system: NCI-H23 lung
[52] = system: M14 melanoma
[53] = system: HT29 colon
[54] = system: SF-268 CNS
[55] = system: HOP-62 NSCLC
[56] = system: CAKI-1 renal
[57] = system: SNB-75 CNS
[58] = system: T-47D breast
[59] = system: RXF 393 renal

Cc1c(-c2c(C)c3ccccc3n2S(=O)(=O)c2ccccc2)n(S(=O)(=O)c2ccccc2)c2ccccc12
TGI [1]: > 100 µM
TGI [2]: > 100 µM
TGI [3]: > 100 µM
TGI [4]: > 100 µM
TGI [5]: > 100 µM
TGI [6]: > 69 µM
TGI [7]: > 100 µM
TGI [8]: > 100 µM
TGI [9]: > 100 µM
TGI [10]: > 100 µM
TGI [11]: > 100 µM
TGI [12]: > 100 µM
TGI [13]: > 100 µM
TGI [14]: > 100 µM
TGI [15]: > 100 µM
TGI [16]: > 100 µM
TGI [17]: > 100 µM
TGI [18]: > 100 µM
TGI [19]: > 100 µM
TGI [20]: > 100 µM
TGI [21]: 13.1 µM
TGI [22]: > 100 µM
TGI [23]: > 100 µM
TGI [24]: > 100 µM
TGI [25]: > 100 µM
TGI [26]: > 100 µM
TGI [27]: > 94.1 µM
TGI [28]: 42.9 µM
TGI [29]: > 100 µM
TGI [30]: > 100 µM
TGI [31]: > 33.5 µM
TGI [32]: > 100 µM
TGI [33]: > 100 µM
TGI [34]: > 100 µM
TGI [35]: > 100 µM
TGI [36]: > 100 µM
TGI [37]: > 100 µM
TGI [38]: > 100 µM
TGI [39]: > 100 µM
TGI [40]: > 100 µM
TGI [41]: > 100 µM
TGI [42]: > 100 µM
TGI [43]: > 100 µM
TGI [44]: > 100 µM
TGI [45]: > 100 µM
TGI [46]: > 100 µM
TGI [47]: 16.3 µM
TGI [48]: > 100 µM
TGI [49]: > 100 µM
TGI [50]: > 100 µM
TGI [51]: > 100 µM
TGI [52]: > 100 µM
TGI [53]: > 100 µM
TGI [54]: > 100 µM
TGI [55]: > 87.3 µM
TGI [56]: > 100 µM
TGI [57]: > 31.6 µM

O=C(Nc1sccc1S(=O)(=O)c1ccccc1)c1cccnc1
TGI [1]: > 85.4 µM
TGI [2]: > 100 µM
TGI [3]: > 100 µM
TGI [4]: > 24.5 µM
TGI [5]: > 100 µM
TGI [6]: > 100 µM
TGI [7]: > 100 µM
TGI [8]: > 100 µM
TGI [9]: > 59.3 µM
TGI [10]: > 86.1 µM
TGI [11]: > 94.2 µM
TGI [12]: 38.2 µM
TGI [13]: > 100 µM
TGI [14]: > 100 µM
TGI [15]: > 100 µM
TGI [16]: > 100 µM
TGI [17]: > 100 µM
TGI [18]: > 100 µM
TGI [19]: > 100 µM
TGI [20]: > 100 µM
TGI [21]: > 100 µM
TGI [22]: > 100 µM
TGI [23]: > 100 µM
TGI [25]: > 100 µM
TGI [26]: > 52.7 µM
TGI [27]: > 26.3 µM
TGI [28]: > 100 µM
TGI [29]: 18 µM
TGI [58]: > 100 µM
TGI [30]: > 100 µM
TGI [31]: > 100 µM
TGI [32]: > 100 µM
TGI [33]: 4.28 µM
TGI [34]: > 100 µM
TGI [35]: 3.63 µM
TGI [36]: > 89.1 µM
TGI [37]: > 100 µM
TGI [38]: > 100 µM
TGI [39]: > 100 µM
TGI [40]: 8.36 µM
TGI [59]: > 100 µM
TGI [41]: > 100 µM
TGI [42]: > 100 µM
TGI [43]: > 100 µM
TGI [44]: > 100 µM
TGI [45]: > 100 µM
TGI [46]: > 100 µM
TGI [47]: > 100 µM
TGI [48]: > 100 µM
TGI [49]: > 100 µM
TGI [50]: > 100 µM
TGI [51]: > 80.2 µM
TGI [52]: > 100 µM
TGI [53]: > 100 µM
TGI [54]: > 100 µM
TGI [55]: > 100 µM
TGI [56]: > 100 µM
TGI [57]: > 91 µM

N#CC1=C2Sc3ccccc3N2[C@H](c2ccccc2)[C@H]2COC(=O)[C@@H]12
TGI [1]: 27 µM
TGI [2]: > 100 µM
TGI [3]: > 100 µM
TGI [4]: 30.7 µM
TGI [5]: > 100 µM
TGI [6]: > 100 µM
TGI [7]: > 100 µM
TGI [9]: > 100 µM
TGI [10]: 70.6 µM
TGI [12]: > 100 µM
TGI [13]: > 100 µM
TGI [14]: > 100 µM
TGI [15]: > 100 µM
TGI [16]: > 100 µM
TGI [17]: > 100 µM
TGI [18]: > 100 µM
TGI [19]: > 100 µM
TGI [20]: > 100 µM
TGI [21]: 81.8 µM
TGI [22]: 87.2 µM
TGI [23]: > 100 µM
TGI [24]: > 100 µM
TGI [25]: > 100 µM
TGI [26]: > 100 µM
TGI [27]: > 100 µM
TGI [28]: > 100 µM
TGI [29]: > 100 µM
TGI [58]: > 100 µM
TGI [30]: > 100 µM
TGI [31]: > 100 µM
TGI [32]: > 100 µM
TGI [35]: > 100 µM
TGI [36]: > 100 µM
TGI [37]: > 100 µM
TGI [39]: > 100 µM
TGI [40]: > 100 µM
TGI [59]: > 100 µM
TGI [41]: > 100 µM
TGI [42]: > 100 µM
TGI [43]: > 100 µM
TGI [44]: > 100 µM
TGI [45]: > 100 µM
TGI [46]: > 100 µM
TGI [48]: > 100 µM
TGI [49]: 91.6 µM
TGI [50]: > 100 µM
TGI [51]: > 100 µM
TGI [52]: > 100 µM
TGI [54]: 74.1 µM
TGI [55]: > 100 µM
TGI [56]: 52.8 µM
TGI [57]: 97.1 µM
